# Measured values: ChEMBL document CHEMBL2021857, “Synthesis, biological activity and docking study of imidazol-5-one as novel non-nucleoside HIV-1 reverse transcriptase inhibitors” (Bioorg Med Chem, 2012)
# Molecular target: Human immunodeficiency virus type 1 reverse transcriptase (Human immunodeficiency virus 1, UniProt Q72547)
# Assay: Inhibition of HIV-1 reverse transcriptase after 1 hr by colorimetry
row,IC50 [µM],Compound
1,2.5,CC1=N/C(=C/c2ccco2)C(=O)N1Cc1ccncc1
2,3.8,O=C1/C(=C\c2ccc(Cl)cc2Cl)N=C(c2ccccc2)N1Cc1ccncc1
3,3.9,CC1=N/C(=C/c2ccc(Cl)cc2)C(=O)N1Cc1ccncc1
4,3.5,CC1=N/C(=C/c2ccccc2O)C(=O)N1Cc1ccncc1

# Molecular target: Human immunodeficiency virus type 1 reverse transcriptase (Human immunodeficiency virus 1) (UniProt Q72547)
# Assay: Inhibition of HIV-1 reverse transcriptase at 20 ug after 1 hr by colorimetry
row,Compound,inhibition [%]
1,CC1=N/C(=C/c2ccco2)C(=O)N1Cc1ccncc1,92.7
2,C/C=C1/N=C(C)N(Cc2ccncc2)C1=O,64.3
3,COc1cc(/C=C2/N=C(C)N(Cc3ccncc3)C2=O)cc(OC)c1OC,67
4,CC1=N/C(=C/c2ccc(Cl)cc2)C(=O)N1Cc1ccncc1,69.8
5,CC1=N/C(=C/c2ccc(Cl)cc2Cl)C(=O)N1Cc1ccncc1,62.8
6,CC1=N/C(=C/c2ccc(N(C)C)cc2)C(=O)N1Cc1ccncc1,58.1
7,CC1=N/C(=C/c2c[nH]c3ccccc23)C(=O)N1Cc1ccncc1,58.7
8,CC1=N/C(=C/c2ccccc2O)C(=O)N1Cc1ccncc1,74.2
9,COc1ccc(/C=C2/N=C(C)N(Cc3ccncc3)C2=O)cc1,59.2

# The next lines start with the values.
row,inhibition [%],Compound
1,70,O=C1/C(=C\c2ccc(Cl)cc2Cl)N=C(c2ccccc2)N1Cc1ccncc1
2,50.2,COc1cc(/C=C2/N=C(c3ccccc3)N(Cc3ccncc3)C2=O)ccc1O
3,54.4,O=C1/C(=C\c2ccccc2)N=C(c2ccccc2)N1Cc1ccncc1
4,47,O=C1/C(=C\c2ccc(Cl)cc2)N=C(c2ccccc2)N1Cc1ccncc1
5,62.5,O=C1/C(=C\c2ccco2)N=C(c2ccccc2)N1Cc1ccncc1
6,43.2,O=C1/C(=C\c2ccccc2O)N=C(c2ccccc2)N1Cc1ccncc1
7,57.8,COc1cc(/C=C2/N=C(c3ccccc3)N(Cc3ccncc3)C2=O)cc(OC)c1OC
8,60.7,CC1=N/C(=C/c2ccccc2)C(=O)N1Cc1ccncc1
9,50,COc1ccc(/C=C2/N=C(c3ccccc3)N(Cc3ccncc3)C2=O)cc1
10,36.8,CN(C)c1ccc(/C=C2/N=C(c3ccccc3)N(Cc3ccncc3)C2=O)cc1
11,61.5,C/C=C1/N=C(c2ccccc2)N(Cc2ccncc2)C1=O
